# Laboratory results: patent publication US11950925B2, “Managing fluid levels in a patient and associated devices, systems, and methods” (REPRIEVE CARDIOVASCULAR, INC., priority 2019, dated 2024)
# Values joined by “and” are separate entries in the source; they are usually repeats but may differ in a detail not shown here. Equal entries are not always repeated.
# Tests used:
# [1] = Fluid overload therapy with diuretic (Lasix) and hydration fluid via the Reprieve Cardiovascular Second Generation System: diuresis, fluid, sodium and weight outcomes; type: in vivo, human
# Description: (§1) Clinical data associated with embodiments of the present technology were obtained from patient tests conducted at the Tbilisi Heart and Vascular Center in Tbilisi, Georgia. 15 patients underwent fluid therapy in which diuretic(s) and hydration fluid were administered via the Reprieve Cardiovascular™ Second Generation System according to the methods described herein (“treatment group”). As described below, data obtained from the tests indicate that the net fluid loss and net sodium loss levels achieved represent a significant improvement over conventional methods for treating fluid overload conditions, and generally indicate that embodiments of the present technology produce improved diuresis and renal safety.
# Table 1 below indicates total urine output, net fluid loss (not including intake fluid), net fluid loss (including intake fluid), net sodium balance, and average diuretic (Lasix) dosage rate for each patient in the treatment group, as measured across a therapy timespan. […] Additionally, the average therapy timespan for the treatment group was 31 hours, whereas the average therapy timespan for standard of care therapy in the literature is approximately 5 days. […] Over the 30 days, none of the patients in the treatment group regained the weight that lost during therapy or were readmitted for additional treatment.
# As also shown in Table 1, the average net sodium balance for all patients in the treatment group decreased by nearly 800 millimoles (mmol) over the therapy timespan. When normalized over a 24-hour period, the average and median net sodium balance was −14 grams (g) and −15 g respectively.
# [2] = human, in vivo
# Description: as §1
# Estimated glomerular filtration rate (eGFR) is a measure of kidney function and stage of kidney disease, and is based on patient factors including blood creatinine and a patient's age, body size, and gender.
# Blood pressure measurements of the patients in the treatment group serve as another indication that the fluid therapy was well received by the patients. For example, the average mean arterial pressure (MAP) of patients dropped from 90.1 mmHg to 88.2 mmHg at the time of patient discharge, and then to 87.2 mmHg after 30 days. Additionally, average systolic pressure of the patients dropped from 121 mmHg to 119 mmHg at the time of patient discharge, and then to 117 mmHg after 30 days.
# [3] = average of 15 treatment group patients, average therapy timespan 31 h
# [4] = individual patient, over that patient's therapy timespan, Lasix plus hydration fluid
# [5] = normalized over a 24-hour period
smiles,measurement,setting,value
"NS(=O)(=O)c1cc(C(=O)O)c(NCc2ccco2)cc1Cl [Lasix, Furosemide]",decrease of average net sodium balance,"[1]; all treatment group patients, over the therapy timespan",~800 mmol
same,"Net Fluid Loss (including oral fluid intake), average",[1]; [3],"−5,919 ml"
same,"Net Fluid Loss (not including oral fluid intake), average",[1]; [3],"−6,948 ml"
same,"Total Urine, average",[1]; [3],"12,744 ml"
same,Net Fluid Loss (including oral fluid intake),[1]; [4],"−4,868 ml and −4,247 ml and −2,232 ml and −10,787 ml and −1,021 ml and −6,276 ml and −5,625 ml and −3,636 ml and −10,299 ml and −3,724 ml and −9,156 ml and −6,583 ml and −6,186 ml and −10,301 ml and −3,844 ml"
same,Net Fluid Loss (not including oral fluid intake),[1]; [4],"−6,001 ml and −4,590 ml and −2,993 ml and −11,913 ml and −2,003 ml and −8,306 ml and −6,941 ml and −3,953 ml and −12,269 ml and −4,364 ml and −9,995 ml and −7,888 ml and −7,018 ml and −11,333 ml and −4,704 ml"
same,Total Urine,[1]; [4],"14,158 ml and 11,456 ml and 6,329 ml and 19,728 ml and 3,726 ml and 12,966 ml and 12,179 ml and 6,496 ml and 20,184 ml and 8,328 ml and 17,784 ml and 14,629 ml and 12,930 ml and 21,155 ml and 9,162 ml"
same,average net fluid loss,[1]; [5],approximately 5.4 L
same,average net sodium balance,[1]; [5],-14 g
same,median net sodium balance,[1]; [5],-15 g
same,increase in net fluid loss relative to control group,"[1]; treatment group vs conventional therapy (diuretic, no replacement hydration fluid), normalized 24-hour period",over 200%
same,average weight loss,"[1]; treatment group, after 30 days",5.7 kg
same,average weight loss,"[1]; treatment group, at the time of patient discharge",6.8 kg
same,average net fluid loss (not including oral fluid intake),"[1]; treatment group, over an average therapy timespan of 31 hours",~7 L
same,patients who regained the weight lost during therapy or were readmitted for additional treatment,"[1]; treatment group, over the 30 days",none
same,average decrease of eGFR,[2],1.6
same,average increase in creatinine,[2],0.11 mg/dL
same,tolerability of the fluid therapy,[2],generally well tolerated
